By EC50 is commonly meant the concentration at which the effect is half-maximal. The inhibition is the percentage by which the read-out fell short of the control.

The results in this text go back to paper PMC7617969, “Carboxylic Acid Bioisosteres Boost Nurr1 Agonist Selectivity” (Journal of medicinal chemistry, 2025).

Read-outs that look alike come from different tables or passages of the source.

In one assay the target is T1, Nurr1 (Homo sapiens, UniProt P43354).
T1 construct: expressed in transfected cells; host or cells: HEK293T
T1 sequence (P43354 360-595 limits assumed): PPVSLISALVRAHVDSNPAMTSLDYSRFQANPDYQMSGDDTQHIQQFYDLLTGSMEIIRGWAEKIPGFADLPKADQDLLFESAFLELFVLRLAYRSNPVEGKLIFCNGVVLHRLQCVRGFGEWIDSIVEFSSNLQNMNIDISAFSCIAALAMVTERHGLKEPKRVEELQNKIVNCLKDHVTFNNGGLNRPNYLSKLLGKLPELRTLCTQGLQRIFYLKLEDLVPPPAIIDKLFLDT
In words: Gal4-Nurr1 hybrid reporter gene assay. The assay is classed as cell-based. The settings on record: for EC50 / max. activation (Nurr1): Gal4-Nurr1 hybrid reporter gene assay; for EC50: HEK293T cells, mean ± S.E.M., n ≥ 3; for max. activation (Nurr1): fold activation vs untreated control; for selectivity index DHODH/Nurr1: IC50(DHODH) / EC50(Nurr1); for efficacy_NR4A2: supplementary csv, max. activation in %. A general note: In a reporter assay the amount or activity of a reporter protein is the signal.

The target of a further assay is T2, DHODH (Homo sapiens, UniProt Q02127).
T2 construct: using an N-terminally truncated recombinant DHODH enzyme as described previously[20]
T2 sequence (Q02127 31-395): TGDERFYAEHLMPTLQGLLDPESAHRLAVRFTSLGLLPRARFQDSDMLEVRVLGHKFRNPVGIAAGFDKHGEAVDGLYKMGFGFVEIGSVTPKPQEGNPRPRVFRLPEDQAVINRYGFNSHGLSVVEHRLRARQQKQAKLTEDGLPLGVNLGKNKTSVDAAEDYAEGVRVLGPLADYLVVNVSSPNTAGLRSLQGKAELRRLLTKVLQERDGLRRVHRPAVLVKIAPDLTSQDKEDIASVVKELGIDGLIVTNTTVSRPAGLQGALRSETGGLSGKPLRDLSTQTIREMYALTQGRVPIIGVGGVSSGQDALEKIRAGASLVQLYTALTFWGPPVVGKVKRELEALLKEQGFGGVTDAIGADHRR
The assay is described as follows: DHODH inhibition colorimetric assay on recombinant human protein. The assay is classed as biochemical.

The mark [1] stands for this setting: recombinant human DHODH, colorimetric, mean ± S.E.M., n ≥ 3, read-out: IC50 (DHODH).

For the compound `[2H]C([2H])([2H])Oc1cccc(-c2c(F)c(F)c(NC(=O)c3ccsc3S(N)(=O)=O)c(F)c2F)c1` [compound 13, Sulfamoyl-N-{2,3,5,6-tetrafluoro-3'-(^2H3)methoxy-[1,1'-biphenyl]-4-yl}thiophene-3-carboxamide], on Nurr1, a half-maximal effect (EC50) was put at 1100 ± 100 nM, the “max. activation (Nurr1)” value was found to be 2.09 ± 0.08 fold, the “selectivity index DHODH/Nurr1” value was 3.0 and the efficacy_NR4A2 is given as 209%. Besides, the IC50 on DHODH (setting [1]) came to 3330 ± 60 nM. Also, the IC50 at DHODH (supplementary csv, read-out: IC50_DHODH) was 3300 nM.

For `[2H]C([2H])([2H])Oc1cccc(-c2c(F)c(F)c(NC(=O)c3ccsc3S(=O)(=O)NC(C)=O)c(F)c2F)c1` [compound 14, 2-(N-Acetylsulfamoyl)-N-{2,3,5,6-tetrafluoro-3’-(^2H3)methoxy-[1,1'-biphenyl]-4-yl}thiophene-3-carboxamide], at Nurr1, the EC50 came to 900 ± 100 nM, the “max. activation (Nurr1)” value stood at 1.89 ± 0.06 fold, the “selectivity index DHODH/Nurr1” value worked out at 4.4 and the efficacy_NR4A2 stood at 189%. In addition, the IC50 on DHODH (setting [1]) was found to be 4000 ± 1000 nM.

Turning to `[2H]C([2H])([2H])Oc1cccc(-c2c(F)c(F)c(NC(=O)c3ccsc3S(C)(=O)=O)c(F)c2F)c1` [compound 15, 2-(Methylsulfonyl)-N-{2,3,5,6-tetrafluoro-3’-(^2H3)methoxy-[1,1'-biphenyl]-4-yl}thiophene-3-carboxamide], at Nurr1, the EC50 turned out to be 1200 ± 100 nM, the “max. activation (Nurr1)” value was 2.05 ± 0.08 fold, the “selectivity index DHODH/Nurr1” value is about 100 and the efficacy_NR4A2 turned out to be 205%. The inhibition at 100 µM at DHODH (recombinant human DHODH) was found to be 49 ± 1%.

On to `[2H]C([2H])([2H])Oc1cccc(-c2c(F)c(F)c(NC(=O)c3ccsc3S(C)(=N)=O)c(F)c2F)c1` (centres unmarked) [compound 16, 2-(S-Methylsulfonimidoyl)-N-{2,3,5,6-tetrafluoro-3’-(^2H3)methoxy-[1,1'-biphenyl]-4-yl}thiophene-3-carboxamide], for which, on Nurr1, the EC50 is 1200 ± 200 nM, the “max. activation (Nurr1)” value was 2.17 ± 0.11 fold, the “selectivity index DHODH/Nurr1” value is recorded as about 25 and the efficacy_NR4A2 turned out to be 217%. Further, at DHODH (recombinant human DHODH), the inhibition at 100 µM was determined as 76 ± 6%.

As for `[2H]C([2H])([2H])Oc1cccc(-c2c(F)c(F)c(NC(=O)c3ccsc3-c3c(O)c(=O)c3=O)c(F)c2F)c1` [compound 17, 2-(2-Hydroxy-3,4-dioxocyclobut-1-en-1-yl)-N-{2,3,5,6-tetrafluoro-3’-(^2H3)methoxy-[1,1'-biphenyl]-4-yl}thiophene-3-carboxamide], on Nurr1, the EC50 amounted to 100 ± 50 nM, the “max. activation (Nurr1)” value is on record as 1.97 ± 0.43 fold, the “selectivity index DHODH/Nurr1” value is recorded as 7 and the efficacy_NR4A2 turned out to be 197%. Also, at DHODH (setting [1]), the IC50 was determined as 700 ± 500 nM.

Consider `[2H]C([2H])([2H])Oc1cccc(-c2c(F)c(F)c(NC(=O)c3ccsc3-c3noc(=O)[nH]3)c(F)c2F)c1` [compound 18, 2-(5-Oxo-4,5-dihydro-1,2,4-oxadiazol-3-yl)-N-{2,3,5,6-tetrafluoro-3’-(^2H3)methoxy-[1,1'-biphenyl]-4-yl}thiophene-3-carboxamide], for which, on Nurr1, the EC50 was 50 ± 10 nM, the “max. activation (Nurr1)” value is given as 1.86 ± 0.11 fold, the “selectivity index DHODH/Nurr1” value stood at 13 and the efficacy_NR4A2 is 186%. Also, at DHODH (setting [1]), the IC50 came to 660 ± 80 nM.

Take `[2H]C([2H])([2H])Oc1cccc(-c2c(F)c(F)c(NC(=O)c3ccsc3-c3nn[nH]n3)c(F)c2F)c1` [compound 19, N-{2,3,5,6-Tetrafluoro-3’-(^2H3)methoxy-[1,1'-biphenyl]-4-yl}-2-(2H-tetrazol-5-yl)thiophene-3-carboxamide]: on Nurr1, the EC50 is 21 ± 2 nM, the “max. activation (Nurr1)” value worked out at 2.14 ± 0.11 fold, the “selectivity index DHODH/Nurr1” value is 28 and the efficacy_NR4A2 is on record as 214%. On DHODH (setting [1]), the IC50 was 600 ± 200 nM.

On to `[2H]C([2H])([2H])Oc1cccc(-c2c(F)c(F)c(NC(=O)C3=C(C(=O)O)COC3)c(F)c2F)c1` [compound 29], for which, at Nurr1, the “max. activation (Nurr1)” value came out at 2.5±0.1 fold and the efficacy_NR4A2 is given as 250%.
